In test [1] the target is T1, FurX (Cupriavidus pinatubonensis, UniProt Q46UZ9).
T1 sequence (Q46UZ9 1-342): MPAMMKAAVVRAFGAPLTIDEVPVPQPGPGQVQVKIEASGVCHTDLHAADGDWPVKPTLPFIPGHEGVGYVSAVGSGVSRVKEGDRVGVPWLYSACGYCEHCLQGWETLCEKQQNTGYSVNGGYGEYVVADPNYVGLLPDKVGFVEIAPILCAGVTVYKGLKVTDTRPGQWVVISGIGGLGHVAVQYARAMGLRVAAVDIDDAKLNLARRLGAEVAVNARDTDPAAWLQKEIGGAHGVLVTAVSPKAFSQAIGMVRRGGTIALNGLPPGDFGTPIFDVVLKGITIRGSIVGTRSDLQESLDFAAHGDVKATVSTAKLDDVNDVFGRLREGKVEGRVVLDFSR
Briefly: affinity measurement, method only in supplement. Format: binding.

Test [2] deals with FurX, Zn-dependent alcohol dehydrogenase from Cupriavidus necator JMP134 (Cupriavidus necator JMP134). In words: SEC-MALS. A general note: Size exclusion chromatography separates by hydrodynamic size, large species first.

Drawing on article PMC3551575 (Molecular microbiology, 2011), this text covers Kd and stoichiometry N for 3 compounds.

The Kd is a measure of binding affinity in units of concentration. Lower therefore signals higher affinity. The term stoichiometry N denotes a count of units in the complex or per binding partner.

The compound `NC(=O)c1ccc[n+]([C@@H]2O[C@H](COP(=O)(O)OP(=O)(O)OC[C@H]3O[C@@H](n4cnc5c(N)ncnc54)[C@H](O)[C@@H]3O)[C@@H](O)[C@H]2O)c1` [NAD^+] returned a Kd in test [1] of 87 µM.

The compound `OCc1ccco1` [furfuryl alcohol] returned an equilibrium dissociation constant (Kd) in test [1] of more than 1000 µM.

“FurX, Zn-dependent alcohol dehydrogenase from Cupriavidus necator JMP134 (enzyme)” displayed a stoichiometry N in test [2] of 4.
